Results reported in patent US5827562A, “Sweetener salts” (Holland Sweetener Company V.o.F., priority 1995, dated 1998).
Values joined by “and” are separate entries in the source; they are usually repeats but may differ in a detail not shown here. Equal values may be shown once. Where a name gives a salt, the structure may show the parent alone. Read-outs that look alike come from different tables or passages of the source. Peptide text beside a SMILES is read from it.

Key:
[1] = Moisture content, Karl-Fischer water determination; assay type: physicochemical; conditions: dried product
Method: b. The moisture content of the products obtained was determined by means of the Karl-Fischer water determination.

[2] = Thermal stability test: open dish in thermostatted oven, decomposition products (DKP, AP) by hplc; assay type: physicochemical; conditions: for DKP content: initial content, relative to dry product
Method: d. Thermal stability tests were conducted by allowing samples of a relevant product to stand for the indicated times in an open dish placed in a thermostatted oven at the relevant temperature, and to determine, via hplc, the concentrations of possible decomposition products such as, in the case of analysis of aspartame salts, diketopiperazine (DKP) and aspartyl-phenylalanine (AP) in the initial and the final sample.
(§1) A number of the products obtained in the above-mentioned experiments and comparative experiments were subjected to further analysis of characterization. The following values were determined: (a) thermal stability (at 70° C. and/or at 120° C.) and (b) dissolution rate. By way of comparison the same was done for a number of reference substances. As regards the thermal stability of the APM containing substances, attention was paid in particular to the increase in the diketopiperazine decomposition product (DKP) in wt.% relative to the dry product.

[3] = Dissolution rate, spectrophotometric dissolution curve in pH 5.0 buffer; assay type: physicochemical; conditions: 23° C.
Method: c. The dissolution rate was found through spectrophotometric determination of the dissolution curve, by introducing 0.1 wt.% of the product (or a screen fraction thereof at 23° C. into a pH 5.0 buffer (Merck titrisol, pH 5.0, in 1 liter of Milli-Q water) whilst stirring continuously.
as §1, with “product. It was also established that the salts included in the table are not hygroscopic.” for “product.”

[4] = general statement, aspartame or its derivatives; cited from earlier work
[5] = usual moisture content of the individual component; cited from earlier work
Solubility in water = assay type: physicochemical; conditions: aqueous reaction medium

With `CC1=CC(=O)NS(=O)(=O)O1.COC(=O)[C@H](Cc1ccccc1)NC(=O)[C@@H](N)CC(=O)O` [Exp. 2l, 1:1 salt of APM and acesulfamic acid] (H-Asp-Phe-OMe) as the molecule, how does the moisture content [1] read?
The moisture content was 0.07%.

With `COC(=O)[C@H](Cc1ccccc1)NC(=O)[C@@H](N)CC(=O)O.O=C1NS(=O)(=O)c2ccccc21` [exp. 1a., 1:1 salt of APM and SacH] (H-Asp-Phe-OMe) as the molecule, how does the “Increase in DKP content” value ([2]; 1 hour, 120° C.) read?
The value was 0 wt. %.

And the “Increase in DKP content” value ([2]; 70 hours, 70° C.)?
The value was 0 wt. %.

And the DKP content [2]?
The DKP content was 0.01 wt. %.

What about the Dissolution rate ([3]; 0.1 wt.% product, stirring) of the same molecule?
Its Dissolution rate is 1 min.

And the moisture content [1]?
Its moisture content is 0.03%.

And the moisture content ([1]; table 1)?
Its moisture content is 0.03 wt. %.

For `COC(=O)C(Cc1ccccc1)NC(=O)C(N)CC(=O)O.O=C1NS(=O)(=O)c2ccccc21` (stereo not drawn) [Exp. 3b, 1:1 salt of APM and saccharinate] (H-Asp-Phe-OMe; configuration not given here), which moisture content [1] is on record?
The moisture content was 0.27%.

For `CC1=CC(=O)NS(=O)(=O)O1.COC(=O)[C@H](Cc1ccccc1)NC(=O)[C@@H](N)CC(=O)O` [Exp. 5a., 1:1 salt of APM and acesulfamic acid] (H-Asp-Phe-OMe), which moisture content [1] is on record?
The moisture content was 0.09%.

With `CC1=CC(=O)NS(=O)(=O)O1.COC(=O)[C@H](Cc1ccccc1)NC(=O)[C@@H](N)CC(=O)O` [Exp. 3a, 1:1 salt of APM and acesulfamic acid] (H-Asp-Phe-OMe) as the molecule, how does the moisture content [1] read?
The moisture content was 2.5%.

For `COC(=O)[C@H](Cc1ccccc1)NC(=O)[C@@H](N)CC(=O)O.O=C1NS(=O)(=O)c2ccccc21` [comp. exp. 1B, 1:1 salt of APM and SacH] (H-Asp-Phe-OMe), which “Increase in DKP content” value ([2]; 70 hours, 70° C.) is on record?
Its value is 0 wt. %.

And the DKP content [2]?
Its DKP content is 0.21 wt. %.

For `COC(=O)[C@H](Cc1ccccc1)NC(=O)[C@@H](N)CC(=O)O` [APM, Δ-L-aspartyl-L-phenylalanine methyl ester] (H-Asp-Phe-OMe), which thermal stability [4] is on record?
The thermal stability was “relatively unfavorable thermal stability”.

With `COC(=O)C(Cc1ccccc1)NC(=O)C(N)CC(=O)O.O=C1NS(=O)(=O)c2ccccc21` (stereo not drawn) [Exp. 4b., 1:1 salt of APM and saccharin] (H-Asp-Phe-OMe; configuration not given here) as the molecule, how does the moisture content [1] read?
The moisture content was 0.04% and 0.05%.

For `CC1=CC(=O)NS(=O)(=O)O1` [AceH], which “thermal stability, observation in words” value ([2]; 1 hour, 120° C.) is on record?
The value was “yellow/orange colour; strong degradation; hydrogen sulphide odour”.

Which moisture content [5] does the source give for `O=S(=O)(O)NC1CCCCC1` [cyclamate-Ca] here?
The moisture content was “up to 9%”.

What does the source list for `CC1=CC(=O)NS(=O)(=O)O1.COC(=O)[C@H](Cc1ccccc1)NC(=O)[C@@H](N)CC(=O)O` [comp. exp. 1C, 1:1 salt of APM and acesulfamic acid] (H-Asp-Phe-OMe)?
Increase in DKP content ([2]; 1 hour, 120° C.): 2.04 wt. %; thermal stability, observation in words ([2]; 1 hour, 120° C.): yellow/yellowbrown colour, with some degradation of the Ace part; Increase in DKP content ([2]; 70 hours, 70° C.): 1.27 wt. %; thermal stability, observation in words ([2]; 70 hours, 70° C.): pale yellow; with hplc some degradation of the Ace part; DKP content [2]: 0.35 wt. %; moisture content [1]: 0.76%; moisture content ([1]; table 1): 0.76 wt. %

With `CC1=CC(=O)NS(=O)(=O)O1.COC(=O)[C@H](Cc1ccccc1)NC(=O)[C@@H](N)CC(=O)O` [exp. 2a., 1:1 salt of APM and acesulfamic acid] (H-Asp-Phe-OMe) as the molecule, how does the “Increase in DKP content” value ([2]; 1 hour, 120° C.) read?
Its value is 0 wt. %.

What about the “Increase in DKP content” value ([2]; 70 hours, 70° C.) of the same molecule?
The value was 0 wt. %.

And the DKP content [2]?
The DKP content was 0.01 wt. %.

And the Dissolution rate ([3]; 0.1 wt.% product, stirring)?
The Dissolution rate was 1 min.

And the moisture content [1]?
Its moisture content is 0.11%.

And the moisture content ([1]; table 1)?
The moisture content was 0.11 wt. %.

Which results are given for `COC(=O)[C@H](Cc1ccccc1)NC(=O)[C@@H](N)CC(=O)O` [APM powder] (H-Asp-Phe-OMe)?
Increase in DKP content ([2]; 1 hour, 120° C.): 2.34 wt. %; Increase in DKP content ([2]; 70 hours, 70° C.): 0.20 wt. %; DKP content [2]: 0.04 wt. %; Dissolution rate ([3]; 0.1 wt.% product, stirring): 2 to 3 min; moisture content ([1]; table 1): 2.60 wt. %

Which moisture content [1] does the source give for `CC1=CC(=O)NS(=O)(=O)O1.COC(=O)[C@H](Cc1ccccc1)NC(=O)[C@@H](N)CC(=O)O` [Experiment 6, 1:1 salt of APM and acesulfamic acid] (H-Asp-Phe-OMe) here?
The moisture content was 0.15%.

With `CC1=CC(=O)NS(=O)(=O)O1.COC(=O)[C@H](Cc1ccccc1)NC(=O)[C@@H](N)CC(=O)O` [Exp. 2k, 1:1 salt of APM and acesulfamic acid] (H-Asp-Phe-OMe) as the molecule, how does the moisture content [1] read?
Its moisture content is 0.10%.

What does the source list for `COC(=O)[C@H](Cc1ccccc1)NC(=O)[C@@H](N)CC(=O)O.O=C1NS(=O)(=O)c2ccccc21` [comp. exp. 1A, 1:1 salt of APM and SacH] (H-Asp-Phe-OMe)?
Increase in DKP content ([2]; 70 hours, 70° C.): 0 wt. %; DKP content [2]: 0.53 wt. %

With `CC1=CC(=O)NS(=O)(=O)O1.COC(=O)[C@H](Cc1ccccc1)NC(=O)[C@@H](N)CC(=O)O` [exp. 4a., 1:1 salt of APM and acesulfamic acid] (H-Asp-Phe-OMe) as the molecule, how does the “Increase in DKP content” value ([2]; 1 hour, 120° C.) read?
The value was 0 wt. %.

And the “thermal stability, observation in words” value ([2]; 1 hour, 120° C.)?
The value was “fully stable, white product”.

And the DKP content [2]?
The DKP content was 0.01 wt. %.

And the Dissolution rate ([3]; 0.1 wt.% product, stirring)?
The Dissolution rate was 1 min.

What about the moisture content [1] of the same molecule?
The moisture content was 0.12%.

What about the moisture content ([1]; table 1) of the same molecule?
The moisture content was 0.12 wt. %.

For `CC1=CC(=O)NS(=O)(=O)O1.COC(=O)[C@H](Cc1ccccc1)NC(=O)[C@@H](N)CC(=O)O` [exp. 4c., 1:1 salt of APM and acesulfamic acid] (H-Asp-Phe-OMe), which “Increase in DKP content” value ([2]; 1 hour, 120° C.) is on record?
Its value is 0 wt. %.

What about the “thermal stability, observation in words” value ([2]; 1 hour, 120° C.) of the same molecule?
The value was “fully stable, white product”.

And the “Increase in DKP content” value ([2]; 70 hours, 70° C.)?
Its value is 0 wt. %.

What about the DKP content [2] of the same molecule?
Its DKP content is 0.01 wt. %.

And the Dissolution rate ([3]; 0.1 wt.% product, stirring)?
The Dissolution rate was 1 min.

What about the moisture content [1] of the same molecule?
Its moisture content is 0.04%.

And the moisture content ([1]; table 1)?
The moisture content was 0.04 wt. %.

With `CC1=CC(=O)NS(=O)(=O)O1.COC(=O)[C@H](Cc1ccccc1)NC(=O)[C@@H](N)CC(=O)O` [comp. exp. 1D, 1:1 salt of APM and acesulfamic acid] (H-Asp-Phe-OMe) as the molecule, how does the “Increase in DKP content” value ([2]; 1 hour, 120° C.) read?
Its value is 2.18 wt. %.

And the “thermal stability, observation in words” value ([2]; 1 hour, 120° C.)?
The value was “yellow/yellowbrown colour, with some degradation of the Ace part”.

What about the “Increase in DKP content” value ([2]; 70 hours, 70° C.) of the same molecule?
Its value is 0.52 wt. %.

And the “thermal stability, observation in words” value ([2]; 70 hours, 70° C.)?
The value was “pale yellow; with hplc some degradation of the Ace part”.

And the DKP content [2]?
Its DKP content is 0.32 wt. %.

What about the moisture content [1] of the same molecule?
Its moisture content is 0.89%.

What about the moisture content ([1]; table 1) of the same molecule?
Its moisture content is 0.89 wt. %.

For `O=C1NS(=O)(=O)c2ccccc21` [SacH, 3-oxo-2,3-dihydro-1,2-benzisothiazole-1,1-dioxide], which “thermal stability, observation in words” value ([2]; 1 hour, 120° C.) is on record?
Its value is “stable”.

Which moisture content [5] does the source give for `O=C1NS(=O)(=O)c2ccccc21` [saccharin-Na, sodium 2,3-dihydro-3-oxobenzisosulfonazole] here?
The moisture content was “up to 15%”.

Which “Increase in DKP content” value ([2]; 1 hour, 120° C.) does the source give for `COC(=O)[C@H](Cc1ccccc1)NC(=O)[C@@H](N)CC(=O)O` [APM granulate, reference compound] (H-Asp-Phe-OMe) here?
The value was 2.09 wt. %.

And the “Increase in DKP content” value ([2]; 70 hours, 70° C.)?
Its value is 0.75 wt. %.

What about the DKP content [2] of the same molecule?
Its DKP content is 0.18 wt. %.

What about the Dissolution rate ([3]; 200-700 μm fraction, 0.1 wt.%) of the same molecule?
Its Dissolution rate is 7 min.

And the Dissolution rate ([3]; <200 μm fraction, 0.1 wt.%)?
The Dissolution rate was 4 min.

And the moisture content ([1]; table 1)?
Its moisture content is 2.30 wt. %.

Which results are given for `COC(=O)[C@H](Cc1ccccc1)NC(=O)[C@@H](N)CC(=O)O` [exp. 1b., 1:1 salt of APM and CycH] (H-Asp-Phe-OMe)?
Increase in DKP content ([2]; 1 hour, 120° C.): 0.14 wt. %; DKP content [2]: 0.18 wt. %; moisture content [1]: 0.16%; moisture content ([1]; table 1): 0.16 wt. %; solubility of the sweetening salt (Solubility in water): high solubility
